Measured values published in ChEMBL document CHEMBL3872258, “Challenges in the development of an M4 PAM in vivo tool compound: The discovery of VU0467154 and unexpected DMPK profiles of close analogs” (Bioorg Med Chem Lett, 2017).
pEC50: −log10 of the molar value.

How the values were obtained:
[1] = target: Muscarinic acetylcholine receptor M4 (Homo sapiens) (UniProt P08173); assay: Positive allosteric modulation of human M4 receptor expressed in CHO cells co-expressing Gqui5 by calcium mobilization assay relative to acetylcholine
[2] = target: T1, Muscarinic acetylcholine receptor M4 (Rattus norvegicus, UniProt P08485); assay: Positive allosteric modulation of rat M4 receptor expressed in CHO cells co-expressing Gqui5 by calcium mobilization assay; assay type: functional, cell-based
T1 sequence (P08485 whole entry): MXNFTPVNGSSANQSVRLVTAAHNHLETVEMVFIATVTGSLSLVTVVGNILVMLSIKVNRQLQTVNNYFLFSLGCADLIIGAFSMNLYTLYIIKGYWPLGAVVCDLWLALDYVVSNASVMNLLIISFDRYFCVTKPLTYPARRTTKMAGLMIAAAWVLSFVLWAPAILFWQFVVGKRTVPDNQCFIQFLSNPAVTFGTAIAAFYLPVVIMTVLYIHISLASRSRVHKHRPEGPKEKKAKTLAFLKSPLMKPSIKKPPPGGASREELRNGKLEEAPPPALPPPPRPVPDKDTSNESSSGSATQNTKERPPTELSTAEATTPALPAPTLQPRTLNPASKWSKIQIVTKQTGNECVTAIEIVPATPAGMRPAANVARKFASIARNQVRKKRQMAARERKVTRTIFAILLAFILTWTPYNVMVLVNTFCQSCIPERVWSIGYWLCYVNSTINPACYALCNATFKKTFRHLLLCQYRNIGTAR

[3] = Ratio of unbound concentration in brain to plasma in Sprague-Dawley rat at 0.20 to 0.25 mg/kg, iv administered through cassette dosing after 0.25 hrs; assay type: ADME, organism-based
[4] = Ratio of total drug level in brain to plasma in Sprague-Dawley rat at 0.20 to 0.25 mg/kg, iv administered through cassette dosing after 0.25 hrs; assay type: ADME, organism-based
[5] = target: T2, Muscarinic acetylcholine receptor M4 (Homo sapiens, UniProt P08173); assay: Positive allosteric modulation of human M4 receptor
T2 sequence (P08173 whole entry): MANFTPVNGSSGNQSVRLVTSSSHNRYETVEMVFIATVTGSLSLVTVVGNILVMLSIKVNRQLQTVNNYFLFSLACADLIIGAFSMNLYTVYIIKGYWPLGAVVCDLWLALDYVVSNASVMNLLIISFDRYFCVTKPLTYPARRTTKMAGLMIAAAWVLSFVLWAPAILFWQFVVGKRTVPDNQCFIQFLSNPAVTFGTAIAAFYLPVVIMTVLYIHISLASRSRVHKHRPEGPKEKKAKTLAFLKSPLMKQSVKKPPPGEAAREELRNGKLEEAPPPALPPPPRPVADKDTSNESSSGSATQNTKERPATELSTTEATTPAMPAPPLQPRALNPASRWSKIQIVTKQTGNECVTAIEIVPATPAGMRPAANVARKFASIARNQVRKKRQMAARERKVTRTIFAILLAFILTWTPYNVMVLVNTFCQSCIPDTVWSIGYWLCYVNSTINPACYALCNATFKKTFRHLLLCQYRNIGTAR

[6] = Fraction unbound in rat; assay type: ADME
[7] = Fraction unbound in human; assay type: ADME
[8] = Ratio of total drug level in brain to plasma (unknown origin); assay type: ADME, cell-free; settings: brain and plasma
[9] = target: T3, Muscarinic acetylcholine receptor M4 (Homo sapiens) (UniProt P08173); assay: Positive allosteric modulation of human M4 receptor relative to acetylcholine
T3 sequence (whole entry): T2 sequence (P08173 whole entry)

[10] = target: T2, Muscarinic acetylcholine receptor M4; assay: Positive allosteric modulation of human M4 receptor expressed in CHO cells co-expressing Gqui5 by calcium mobilization assay; assay type: functional, cell-based; settings: for pEC50: read-out: EC50
[11] = target: T4, Muscarinic acetylcholine receptor M4 (Rattus norvegicus) (UniProt P08485); assay: Positive allosteric modulation of rat M4 receptor expressed in CHO cells co-expressing Gqui5 by calcium mobilization assay relative to acetylcholine; assay type: functional, cell-based
T4 sequence (whole entry): T1 sequence (P08485 whole entry)

[12] = target: T3, Muscarinic acetylcholine receptor M4 (Homo sapiens); assay: Positive allosteric modulation of human M4 receptor expressed in CHO cells co-expressing Gqui5 by calcium mobilization assay relative to acetylcholine; assay type: functional, cell-based

Row | SMILES | Emax [1] [%] | pEC50 [2] | K(p,uu,brain) [3] | Kp [4] | further results
1 | Cc1nnc2sc(C(=O)NCc3ccc(S(=O)(=O)C(F)F)c(F)c3)c(N)c2c1C | 76.7 | 7.63 | – | – | K(p,uu,brain) ([3]; BLD = below limit of detection): Bld; Kp ([4]; BLD = below limit of detection): Bld
2 | COc1ccc(CNC(=O)c2sc3nnc(C)c(C)c3c2N)cc1 | – | – | – | – | pEC50 [5]: 6.82; fraction unbound [6]: 0.022; fraction unbound [7]: 0.035; Kp [8]: 0.28; Emax [9]: 83%
3 | Cc1nnc2sc(C(=O)NCc3ccc(S(=O)(=O)C4CC4)cc3)c(N)c2c1C | 67.1 | 7.65 | 0.29 | 0.05 | –
4 | Cc1nnc2sc(C(=O)NCc3ccc(S(=O)(=O)C(C)(C)C)cc3)c(N)c2c1C | 72.1 | 7.35 | 0.34 | 0.11 | –
5 | Cc1nnc2sc(C(=O)NCc3cccc(S(C)(=O)=O)c3)c(N)c2c1C | 74.6 | 6.38 | – | – | –
6 | Cc1nnc2sc(C(=O)NCc3ccc([S+](C)[O-])cc3)c(N)c2c1C (stereo not given) | 74.2 | 6.86 | – | – | –
7 | Cc1nnc2sc(C(=O)NCc3ccc(S(C)(=O)=O)c(F)c3)c(N)c2c1C | 69.2 | 7.24 | 2.8 | 0.51 | –
8 | Cc1nnc2sc(C(=O)NCc3ccc(S(C)(=O)=O)cc3)c(N)c2c1C | – | 7.29 | 0.14 | 0.04 | pEC50 [10]: 6.44; Emax [11]: 72.6%; Emax [12]: 73.8%
9 | Cc1nnc2sc(C(=O)NCc3ccc(S(=O)(=O)CF)cc3)c(N)c2c1C | 62.5 | 7.66 | – | – | K(p,uu,brain) ([3]; BLD = below limit of detection): Bld; EC50 ([10]; read-out: pEC50 (converted)): 0.209 µM; Kp ([4]; BLD = below limit of detection): Bld; Emax [12]: 62.5%
10 | Cc1nnc2sc(C(=O)NCc3ccc(S(=O)(=O)C(C)C)cc3)c(N)c2c1C | 76.8 | 7.32 | 0.67 | 0.07 | –
11 | CSc1ccc(CNC(=O)c2sc3nnc(C)c(C)c3c2N)cc1 | – | 7.95 | 0.48 | 0.13 | pEC50 [10]: 7.22; Emax [11]: 75.6%; Emax [12]: 71.9%
12 | COc1ccc(CNC(=O)c2sc3nc(C)cc(C)c3c2N)cc1 | – | – | – | – | fraction unbound [6]: 0.015; fraction unbound [7]: 0.004; Kp [8]: 0.38
